Structures can show the parent of a compound that is named as a salt.

The test system of data set [1] is collagen production induced by TGF-β (NHDF cells). The data set is described as follows: Inhibitory effect on collagen production induced by TGF-β, [3H] proline uptake (NHDF cells). Type of data set: cell-based, human. Conditions: Homo sapiens, NHDF, TGF-β1 3 ng/ml. The method, then: (§1) As an index of collagen production, the uptake of [^3H] proline was measured.
(§2) Using a 96-well microplate, normal human skin derived fibroblast (NHDF, 10^4/well) or human embryonic lung fibroblast (TIG-3, 10^4/well) were cultured in a 10% fetal calf serum (FCS)-containing Dulbecco's modified Eagle medium (DMEM) for one day. After removing the culture supernatant, the cells were washed once with a 0.1% bovine serum albumin (BSA)-containing DMEM medium and then cultured in the 0.1% bovine serum albumin (BSA)-containing DMEM medium for one day. After adding each of the test compounds in each concentration (1, 3, 10 μM), the cells were cultured and, after adding TGF-β1 (3 ng/ml) and [^3H] proline (18.5 kBq/well), the cells were further cultured for additional one day.
(§3) After removing the culture supernatant, the cells were washed twice with a phosphate buffer solution (PBS) and dissolved with 0.3M NaOH and 1% sodium dodecylsulfate (SDS), and then each protein fraction was precipitated with trichloroacetic acid (TCA) After the precipitate was filtered through a glass filter (GF/B) and washed, the quantity of [^3H] proline on the glass filter was measured by a liquid scintillation counter. The number of cells was measured by a cell growth measuring kit (XTT, Roche) and the uptake of [^3H] proline was corrected by the number of cells. Inhibitory ratio was calculated as compared with the case where a difference between the uptake of [^3H] proline with or without TGF-β1.

In data set [2] the test system is collagen production induced by TGF-β (TIG-3 cells). The data set is described as follows: Inhibitory effect on collagen production induced by TGF-β, [3H] proline uptake (TIG-3 cells). Type of data set: cell-based. Conditions: Homo sapiens, TGF-β1 3 ng/ml. As for the experimental part:
as §1, §2, §3

Data set [3] can be described thus: Measurement of concentration of compound in rat plasma. Format: in vivo. Conditions: oral 10 mg/kg; for concentration at 0.25 h: after 0.25 hours; for concentration at 1 h: after 1 hour; for concentration at 4 h: after 4 hours. As for the experimental part:
Each of the test compounds was dissolved or suspended in methyl cellulose and the resulting solution or suspension was orally administered to rats at a dosage of 10 mg/kg and blood was collected after 0.25 hours, 1 hour and 4 hours. The concentration in plasma in each of the compounds was measured by HPLC.

The subject of a further data set is mice. The data set is described as follows: Acute toxicity. Type of data set: in vivo. Conditions: oral 1000 mg/kg, observed for a week after administration. As for the experimental part:
Each of the compounds in Examples 1, 9, 31, 120, and 121 was administered.

For the compound `Cc1ccc2c(c1)c(C(=O)N1CCN(c3ccccn3)CC1)c(-c1ccccc1)n2C` [Compound A, 1-(1,5-dimethyl-2-phenylindol-3-ylcarbonyl)-4-(2-pyridyl)piperazine hydrochloride, reference compound], in data set [1], the inhibition at 1 µM was found to be 8%, the inhibition at 3 µM came out at 9% and the inhibition at 10 µM worked out at 30%. Besides, in data set [2], the inhibition at 3 µM is 28% and the inhibition at 10 µM is 63%. Also, in data set [3], the concentration at 0.25 h is 0 to 69 ng/mL, the concentration at 1 h is 55 to 120 ng/mL and the concentration at 4 h was in the range of 5 to 18 ng/mL.

In the case of `Cc1ccc2c(c1)c(C(=O)N1CCN(c3ccc(C(=O)NCCO)cn3)CC1)c(-c1ccccc1)n2C` [Example 1, 6-{4-[(1,5-dimethyl-2-phenyl-1H-indol-3-yl)carbonyl]piperazin-1-yl}-N-(2-hydroxyethyl)nicotinamide], in data set [2], the inhibition at 3 µM was determined as 21% and the inhibition at 10 µM worked out at 56%. In data set [3], this compound yielded a concentration at 0.25 h of 2300 to 29000 ng/mL, a concentration at 1 h of 1300 to 7300 ng/mL and a concentration at 4 h of 750 to 940 ng/mL. In the data set with mice, the “Acute toxicity: deaths” value is “no deaths were observed”.

In the case of `COc1ccc(CNC(=O)/C=C/c2c(-c3ccccc3)n(C)c3ccccc23)cc1` [Example 2, (2E)-N-(4-methoxybenzyl)-3-(1-methyl-2-phenyl-1H-indol-3-yl)acrylamide], in data set [1], the inhibition at 1 µM turned out to be 23%, the inhibition at 3 µM was 61% and the inhibition at 10 µM stood at 79%. Besides, in data set [2], the inhibition at 3 µM amounted to 74% and the inhibition at 10 µM was found to be 117%.

Regarding `CO[C@H]1Cc2ccccc2[C@H]1NC(=O)/C=C/c1c(-c2ccccc2)n(C)c2ncccc12` [Example 4, (2E)-N-[(1R,2S)-2-methoxy-2,3-dihydro-1H-inden-1-yl]-3-(1-methyl-2-phenyl-1H-pyrrolo[2,3-b]pyridin-3-yl)acrylamide hydrochloride], in data set [1], the inhibition at 1 µM was determined as 41%, the inhibition at 3 µM was found to be 70% and the inhibition at 10 µM worked out at 138%. Also, in data set [3], the concentration at 0.25 h fell in the range of 390 to 500 ng/mL, the concentration at 1 h was in the range of 490 to 590 ng/mL and the concentration at 4 h was in the range of 180 to 290 ng/mL.

In the case of `Cc1ccc2c(c1)c(C(=O)N1CCN(c3cnc(C(=O)NCCc4scnc4C)cn3)CC1)c(-c1ccccc1)n2C` [Example 5, 5-{4-[(1,5-dimethyl-2-phenyl-1H-indol-3-yl)carbonyl]piperazin-1-yl}-N-[2-(4-methyl-1,3-thiazol-5-yl)ethyl]pyrazine-2-carboxamide trihydrochloride], in data set [1], the inhibition at 1 µM was 40%, the inhibition at 3 µM amounted to 43% and the inhibition at 10 µM was 88%. Also, in data set [3], the concentration at 0.25 h fell in the range of 1400 to 2300 ng/mL, the concentration at 1 h was 520 to 720 ng/mL and the concentration at 4 h fell in the range of 87 to 160 ng/mL.

As to `Cc1ccc2c(c1)c(C(=O)N1CCN(c3ccc(-c4nnn(CCO)n4)cn3)CC1)c(-c1ccccc1)n2C.Cl` [Example 9, 1,5-dimethyl-2-phenyl-3-[(4-{5-[2-(2-hydroxyethyl)-2H-tetrazol-5-yl]pyridin-2-yl}piperazin-1-yl)carbonyl]-1H-indole hydrochloride], in data set [2], the inhibition at 3 µM is 42% and the inhibition at 10 µM stood at 71%. In data set [3], the concentration at 0.25 h lay in the range of 1300 to 3900 ng/mL, the concentration at 1 h was 720 to 2200 ng/mL and the concentration at 4 h is 350 to 530 ng/mL. Besides, the “Acute toxicity: deaths” value with mice was “no deaths were observed”.

Take `Cc1ccc2c(c1)c(C(=O)N1CCN(c3cnc(C(=O)NCc4ccco4)cn3)CC1)c(-c1ccccc1)n2C` [Example 15, 5-{4-[(1,5-dimethyl-2-phenyl-1H-indol-3-yl)carbonyl]piperazin-1-yl}-N-(2-furylmethyl)pyrazine-2-carboxamide]: in data set [2], the inhibition at 3 µM stood at 82% and the inhibition at 10 µM came out at 140%.

Consider `Cc1ncsc1CCNC(=O)c1cnc(N2CCN(C(=O)c3c(-c4ccccc4)n(C)c4ncccc34)CC2)cn1` [Example 27, 5-{4-[(1-methyl-2-phenyl-1H-pyrrolo[2,3-b]pyridin-3-yl)carbonyl]piperazin-1-yl}-N-[2-(4-methyl-1,3-thiazol-5-yl)ethyl]pyrazine-2-carboxamide dihydrochloride], for which, in data set [1], the inhibition at 1 µM is 25%, the inhibition at 3 µM came out at 35% and the inhibition at 10 µM worked out at 42%. Also, in data set [3], the concentration at 0.25 h was 2400 to 4100 ng/mL and the concentration at 1 h fell in the range of 1500 to 1900 ng/mL.

Take `CC1c2cc3c(cc2CCN1C(=O)/C=C/c1c(-c2ccccc2)n(C)c2ncccc12)OCO3` (centres unmarked) [Example 28, 5-methyl-6-[(2E)-3-(1-methyl-2-phenyl-1H-pyrrolo[2,3-b]pyridin-3-yl)prop-2-enoyl]-5,6,7,8-tetrahydro[1,3]dioxolo[4,5-g]isoquinoline hydrochloride]: in data set [1], the inhibition at 1 µM stood at 31%, the inhibition at 3 µM stood at 40% and the inhibition at 10 µM is 92%. In data set [3], this compound had a concentration at 0.25 h of 71 to 170 ng/mL, a concentration at 1 h of 400 to 550 ng/mL and a concentration at 4 h of 320 to 460 ng/mL.

As to `Cn1c(-c2ccccc2)c(/C=C/C(=O)N2CCC(n3c(=O)[nH]c4ccccc43)CC2)c2cccnc21` [Example 29, 1-{1-[(2E)-3-(1-methyl-2-phenyl-1H-pyrrolo[2,3-b]pyridin-3-yl)prop-2-enoyl]piperidin-4-yl}-1,3-dihydro-2H-benzimidazol-2-one hydrochloride], in data set [1], the inhibition at 1 µM stood at 64%, the inhibition at 3 µM came out at 72% and the inhibition at 10 µM came out at 123%. In data set [3], this compound had a concentration at 0.25 h of 330 to 940 ng/mL, a concentration at 1 h of 280 to 1100 ng/mL and a concentration at 4 h of 170 to 710 ng/mL.

With `Cc1ccc2c(c1)c(C(=O)N1CCN(c3cnc(C(=O)NCc4c(C)noc4C)cn3)CC1)c(-c1ccccc1)n2C` [Example 32, 5-{4-[(1,5-dimethyl-2-phenyl-1H-indol-3-yl)carbonyl]piperazin-1-yl}-N-[(3,5-dimethylisoxazol-4-yl)methyl]pyrazine-2-carboxamide], in data set [2], the inhibition at 3 µM was found to be 62% and the inhibition at 10 µM came out at 117%.

For the compound `Cc1ccc2c(c1)c(C(=O)N1CCN(c3ccc(C(=O)N(CCO)Cc4ccccc4)cn3)CC1)c(-c1ccccc1)n2C` [Example 60, 6-{4-[(1,5-dimethyl-2-phenyl-1H-indol-3-yl)carbonyl]piperazin-1-yl}-N-(2-hydroxyethyl)-N-benzylnicotinamide hydrochloride], in data set [2], the inhibition at 3 µM came out at 70% and the inhibition at 10 µM is 133%.

Consider `Cc1ccc2c(c1)c(C(=O)N1CCN(c3cnc(C(=O)NCCc4ccccn4)cn3)CC1)c(-c1ccccc1)n2C` [Example 76, 5-{4-[(1,5-dimethyl-2-phenyl-1H-indol-3-yl)carbonyl]piperazin-1-yl}-N-[2-(2-pyridyl)ethyl]pyrazine-2-carboxamide], for which, in data set [2], the inhibition at 3 µM was 78% and the inhibition at 10 µM was determined as 101%.

For `Cc1ccc2c(c1)c(C(=O)N1CCN(c3cnc(C(=O)NCCc4scnc4C)cn3)CC1)c(-c1ccccc1)n2C` [Example 80, 5-{4-[(1,5-dimethyl-2-phenyl-1H-indol-3-yl)carbonyl]piperazin-1-yl}-N-[2-(4-methyl-1,3-thiazol-5-yl)ethyl]pyrazine-2-carboxamide], in data set [2], the inhibition at 3 µM is 105% and the inhibition at 10 µM was 149%.

In data set [3], `Cc1ccc2c(c1)c(C(=O)N1CCN(c3ccc(C(=O)N(C)C)cn3)CC1)c(-c1ccccc1)n2C.Cl` [Example 120, 6-{4-[(1,5-dimethyl-2-phenyl-1H-indol-3-yl)carbonyl]piperazin-1-yl}-N,N-dimethylnicotinamide hydrochloride] returned a concentration at 0.25 h of 6400 to 10000 ng/mL, a concentration at 1 h of 3200 to 5700 ng/mL and a concentration at 4 h of 2500 to 3100 ng/mL. Besides, the “Acute toxicity: deaths” value with mice was “no deaths were observed”.

Turning to `CC(=O)Nc1cnc(N2CCN(C(=O)c3c(-c4ccccc4)n(C)c4ccc(C)cc34)CC2)cn1` [Example 121, N-[5-{4-[(1,5-dimethyl-2-phenyl-1H-indol-3-yl)carbonyl]piperazin-1-yl}pyrazin-2-yl]acetamide], in data set [1], the inhibition at 3 µM was found to be 39% and the inhibition at 10 µM came to 54%. In data set [3], this compound returned a concentration at 0.25 h of 3900 to 5800 ng/mL, a concentration at 1 h of 2100 to 5800 ng/mL and a concentration at 4 h of 310 to 580 ng/mL. Also, in the data set with mice, the “Acute toxicity: deaths” value is recorded as “no deaths were observed”.

Usually inhibition stands for the change of the read-out against control, counted positive when it falls.

The values above are taken from US20050014942A1, “Amide derivatives and drugs” (priority 2001, published 2005).
